27 molecules from patent US11427548B2 (Arvinas Operations, Inc., priority 2015, dated 2022) can be followed below.

Read-outs that look alike come from different tables or passages of the source.

The experiment deals with T1, Androgen Receptor (Homo sapiens, UniProt P10275).
T1 construct: endogenous in cells; host or cells: VCaP cells
T1 sequence (P10275 1-920): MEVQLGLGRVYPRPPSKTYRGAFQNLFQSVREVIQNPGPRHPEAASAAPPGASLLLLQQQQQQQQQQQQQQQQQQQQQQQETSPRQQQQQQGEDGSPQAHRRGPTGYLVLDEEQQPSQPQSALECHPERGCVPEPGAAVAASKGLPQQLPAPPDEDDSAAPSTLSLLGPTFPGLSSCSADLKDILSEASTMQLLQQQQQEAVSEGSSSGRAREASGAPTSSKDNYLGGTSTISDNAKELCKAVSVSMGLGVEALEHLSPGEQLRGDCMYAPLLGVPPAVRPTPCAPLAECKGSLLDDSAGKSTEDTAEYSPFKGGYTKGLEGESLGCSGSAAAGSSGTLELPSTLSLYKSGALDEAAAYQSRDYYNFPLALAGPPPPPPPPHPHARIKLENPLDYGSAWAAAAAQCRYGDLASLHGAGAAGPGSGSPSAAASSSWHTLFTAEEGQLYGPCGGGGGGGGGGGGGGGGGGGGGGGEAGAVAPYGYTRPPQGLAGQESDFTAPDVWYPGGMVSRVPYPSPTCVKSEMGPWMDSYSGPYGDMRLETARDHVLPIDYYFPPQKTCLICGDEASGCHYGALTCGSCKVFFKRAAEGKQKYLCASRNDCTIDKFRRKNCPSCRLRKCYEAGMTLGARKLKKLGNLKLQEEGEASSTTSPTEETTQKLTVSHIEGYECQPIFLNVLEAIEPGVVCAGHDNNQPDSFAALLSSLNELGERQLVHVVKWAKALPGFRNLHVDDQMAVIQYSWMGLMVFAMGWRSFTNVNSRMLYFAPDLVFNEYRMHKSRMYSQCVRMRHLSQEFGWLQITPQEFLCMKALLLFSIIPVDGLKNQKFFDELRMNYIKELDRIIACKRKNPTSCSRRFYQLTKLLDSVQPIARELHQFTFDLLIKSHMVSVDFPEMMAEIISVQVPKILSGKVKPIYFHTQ
Nature of the experiment: Androgen Receptor ELISA assay (PathScan AR ELISA) in VCaP cells: AR degradation, Dmax and DC50. It counts as cell-based. Put shortly: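 VCaP cells, 30,000/well, grown ≥3 days in phenol red-free RPMI with 5% charcoal-stripped FBS; compound added in 0.1% DMSO with 0.1 nM R1881, 7 half-log doses, 24 h. Lysate AR quantified by PathScan sandwich ELISA, HRP/TMB read at 450 nm, giving DC50 and Dmax.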
(In general: An ELISA detects its analyte on a solid surface through an enzyme-linked reagent.)

The mark [1] stands for this setting: VCaP cells; Table 35; read-out: VCaP DC50.
[2] abbreviates: VCaP, VCaP cells; Table 35; read-out: VCaP Dmax (%).
Setting [3] is: read-out: VCaP DC50; VCaP cells; Table 35.

Regarding `CC(C)(C)[C@H](NC(=O)COCCCCCNc1ccc(C(=O)N[C@H]2C(C)(C)[C@H](Oc3ccc(C#N)c(Cl)c3)C2(C)C)cc1)C(=O)N1C[C@H](O)C[C@H]1C(=O)NCc1ccc(-c2scnc2C#N)cc1` [Example 521], the 50% degradation concentration (DC50) under setting [1] is below 50 nM. Besides, the Dmax under setting [2] lay in the range of 51 to 70%.
The like results for `COc1ccc(CNC(=O)[C@@H]2C[C@@H](O)CN2C(=O)[C@@H](NC(=O)COCCCCCNc2ccc(C(=O)N[C@H]3C(C)(C)[C@H](Oc4ccc(C#N)c(Cl)c4)C3(C)C)cc2)C(C)(C)C)cc1` [Example 522] were, in that order, below 50 nM and 51 to 70%.
On to `CC(C)(C)[C@H](NC(=O)COCCCCCNc1ccc(C(=O)N[C@H]2C(C)(C)[C@H](Oc3ccc(C#N)c(Cl)c3)C2(C)C)cc1)C(=O)N1C[C@H](O)C[C@H]1C(=O)NCc1ccc(C#N)nc1` [Example 523], for which the DC50 under setting [1] was below 50 nM. In addition, under setting [2], the Dmax was in the range of 51 to 70%.
As for `CC(C)(C)[C@H](NC(=O)COCCNc1ccc(-c2ccc(C(=O)N[C@H]3C(C)(C)[C@H](Oc4ccc(C#N)c(Cl)c4)C3(C)C)cc2)cc1)C(=O)N1C[C@H](O)C[C@H]1C(=O)NCc1ccc(C#N)cc1` [Example 524], the DC50 under setting [1] is below 50 nM. For the same molecule, under setting [2], the Dmax is 51 to 70%.
The like results for `Cc1ncsc1-c1ccc(CNC(=O)[C@@H]2C[C@@H](O)CN2C(=O)[C@@H](NC(=O)COCCN2CCC(c3ccc(C(=O)N[C@H]4C(C)(C)[C@H](Oc5ccc(C#N)c(Cl)c5)C4(C)C)cc3)CC2)C(C)(C)C)cc1` [Example 525] were, in that order, above 501 nM and 51 to 70%.
Turning to `CC(C)(C)[C@H](NC(=O)COCCCCCNc1ccc(C(=O)N[C@H]2C(C)(C)[C@H](Oc3ccc(C#N)c(Cl)c3)C2(C)C)cc1)C(=O)N1C[C@H](O)C[C@H]1C(=O)NCc1ccc(-n2ccnn2)cc1` [Example 526], the 50% degradation concentration (DC50) under setting [1] is below 50 nM. Further, under setting [2], the Dmax fell in the range of 51 to 70%.
On to `CC(C)(C)[C@H](NC(=O)COCCCCCNc1ccc(C(=O)N[C@H]2C(C)(C)[C@H](Oc3ccc(C#N)c(Cl)c3)C2(C)C)cc1)C(=O)N1C[C@H](O)C[C@H]1C(=O)NCc1ccc(-n2nccn2)cc1` [Example 527], for which the DC50 under setting [1] is below 50 nM. The Dmax under setting [2] fell in the range of 26 to 50%.
For `CC(C)(C)[C@H](NC(=O)COCCCCCNc1ccc(C(=O)N[C@H]2C(C)(C)[C@H](Oc3ccc(C#N)c(Cl)c3)C2(C)C)cc1)C(=O)N1C[C@H](O)C[C@H]1C(=O)NCc1ccc(-c2nnc[nH]2)cc1` [Example 528], the DC50 under setting [1] is below 50 nM. Also, under setting [2], the Dmax lay in the range of 51 to 70%.
As to `CC(C)(C)[C@H](NC(=O)COCCCCCNc1ccc(C(=O)N[C@H]2C(C)(C)[C@H](Oc3ccc(C#N)c(Cl)c3)C2(C)C)cc1)C(=O)N1C[C@H](O)C[C@H]1C(=O)NCc1ccc(-n2ccccc2=O)cc1` [Example 529], the DC50 under setting [1] was below 50 nM. Also, the Dmax under setting [2] is below 25%.
The matching figures for `CC(C)(C)[C@H](NC(=O)COCCCCCNc1ccc(C(=O)N[C@H]2C(C)(C)[C@H](Oc3ccc(C#N)c(Cl)c3)C2(C)C)cc1)C(=O)N1C[C@H](O)C[C@H]1C(=O)NCc1ccc(-n2cncn2)cc1` [Example 530]: below 50 nM and above 71%.
The like results for `CC(C)(C)[C@H](NC(=O)COCCCCCNc1ccc(C(=O)N[C@H]2C(C)(C)[C@H](Oc3ccc(C#N)c(Cl)c3)C2(C)C)cc1)C(=O)N1C[C@H](O)C[C@H]1C(=O)NCc1ccc(-c2cccnn2)cc1` [Example 531] were, in that order, below 50 nM and 26 to 50%.
Take `CC(C)(C)[C@H](NC(=O)COCCCCCNc1ccc(C(=O)N[C@H]2C(C)(C)[C@H](Oc3ccc(C#N)c(Cl)c3)C2(C)C)cc1)C(=O)N1C[C@H](O)C[C@H]1C(=O)NCc1ccc(-c2cnccn2)cc1` [Example 532]: the DC50 under setting [1] is below 50 nM. Besides, under setting [2], the Dmax lay within 51 to 70%.
The like results for `CC(C)(C)[C@H](NC(=O)COCCCCCNc1ccc(C(=O)N[C@H]2C(C)(C)[C@H](Oc3ccc(C#N)c(Cl)c3)C2(C)C)cc1)C(=O)N1C[C@H](O)C[C@H]1C(=O)NCc1ccc(-c2ccncn2)cc1` [Example 533] were, in that order, below 50 nM and 26 to 50%.
The like results for `CC(C)(C)[C@H](NC(=O)COCCCCCNc1ccc(C(=O)N[C@H]2C(C)(C)[C@H](Oc3ccc(C#N)c(Cl)c3)C2(C)C)cc1)C(=O)N1C[C@H](O)C[C@H]1C(=O)NCc1ccc(-c2cncnc2)cc1` [Example 534] were, in that order, below 50 nM and 51 to 70%.
As for `CC(C)(C)[C@H](NC(=O)COCCCCCNc1ccc(C(=O)N[C@H]2C(C)(C)[C@H](Oc3ccc(C#N)c(Cl)c3)C2(C)C)cc1)C(=O)N1C[C@H](O)C[C@H]1C(=O)NCc1ccc(-c2ncccn2)cc1` [Example 535], the half-maximal degradation concentration (DC50) under setting [1] was below 50 nM. Besides, under setting [2], the greatest degradation seen (Dmax) lay in the range of 26 to 50%.
Consider `CC(C)(C)[C@H](NC(=O)COCCCCCNc1ccc(C(=O)N[C@H]2C(C)(C)[C@H](Oc3ccc(C#N)c(Cl)c3)C2(C)C)cc1)C(=O)N1C[C@H](O)C[C@H]1C(=O)NCc1ccc(-c2ccccn2)cc1` [Example 536], for which the DC50 under setting [1] is below 50 nM. For the same molecule, under setting [2], the Dmax was in the range of 26 to 50%.
On to `Cc1ncsc1-c1ccc(CNC(=O)[C@@H]2C[C@@H](O)CN2C(=O)[C@@H](NC(=O)COCCCCCNc2ccc(C(=O)N[C@H]3C(C)(C)[C@H](Oc4ccc(C#N)c(Cl)c4)C3(C)C)cc2)C(C)C)cc1` [Example 537], for which the 50% degradation concentration (DC50) under setting [1] is below 50 nM. The Dmax under setting [2] fell in the range of 26 to 50%.
The like results for `Cc1ncsc1-c1ccc(CNC(=O)[C@@H]2C[C@@H](O)CN2C(=O)[C@@H](NC(=O)COCCCCCNc2ccc(C(=O)N[C@H]3C(C)(C)[C@H](Oc4ccc(C#N)c(Cl)c4)C3(C)C)cc2)C(C)(C)C)nc1` [Example 538] were, in that order, above 501 nM and 51 to 70%.
The matching figures for `CC(C)(C)[C@H](NC(=O)COCCCCCNc1ccc(C(=O)N[C@H]2C(C)(C)[C@H](Oc3ccc(C#N)c(Cl)c3)C2(C)C)cc1)C(=O)N1C[C@H](O)C[C@H]1C(=O)NCc1ccc(C#N)cn1` [Example 539]: below 50 nM and 26 to 50%.
Regarding `CC(C)(C)[C@H](NC(=O)COCCNc1ccc(-c2ccc(C(=O)N[C@H]3C(C)(C)[C@H](Oc4ccc(C#N)c(Cl)c4)C3(C)C)cc2)cn1)C(=O)N1C[C@H](O)C[C@H]1C(=O)NCc1ccc(C#N)cc1` [Example 540], under setting [1], the DC50 is below 50 nM. The Dmax under setting [2] was above 71%.
Take `C[C@H](NC(=O)[C@@H]1C[C@@H](O)CN1C(=O)[C@@H](NC(=O)COCCCCCNc1ccc(C(=O)N[C@H]2C(C)(C)[C@H](Oc3ccc(C#N)c(Cl)c3)C2(C)C)cc1)C(C)(C)C)c1ccc(C#N)cc1` [Example 541]: the DC50 under setting [1] was below 50 nM. For the same molecule, the Dmax under setting [2] is above 71%.
For `CC(C)(C)[C@H](NC(=O)COCCCCCNc1ccc(C(=O)N[C@H]2C(C)(C)[C@H](Oc3ccc(C#N)c(Cl)c3)C2(C)C)cc1)C(=O)N1C[C@H](O)C[C@H]1C(=O)NCc1ccc(C#N)cc1` [Example 542], the half-maximal degradation concentration (DC50) under setting [1] is below 50 nM. Also, under setting [2], the Dmax is above 71%.
`Cc1ncsc1-c1ccc(CNC(=O)[C@@H]2C[C@@H](O)CN2C(=O)[C@@H](NC(=O)COCCOc2ccc(-c3c(F)cc(C(=O)N[C@H]4C(C)(C)[C@H](Oc5ccc(C#N)c(Cl)c5)C4(C)C)cc3F)cc2)C(C)(C)C)cc1` [Example 543]: the DC50 under setting [1] is below 50 nM. Besides, the Dmax under setting [2] was above 71%.
The matching figures for `Cc1ncsc1-c1ccc(CNC(=O)[C@@H]2C[C@@H](O)CN2C(=O)[C@@H](NC(=O)COCCN2CCN(c3ccc(C(=O)N[C@H]4C(C)(C)[C@H](Oc5ccc(C#N)c(Cl)c5)C4(C)C)cc3)CC2)C(C)(C)C)cc1` [Example 544]: below 50 nM and above 71%.
Turning to `Cc1ncsc1-c1ccc(CNC(=O)[C@@H]2C[C@@H](O)CN2C(=O)[C@@H](NC(=O)COCCCCOc2ccc(-c3ccc(N4C(=S)N(c5ccc(C#N)c(C(F)(F)F)c5)C(=O)C4(C)C)cc3)cc2)C(C)(C)C(=O)OC(C)(C)C)cc1` [Example 545], the Dmax (VCaP, read-out: VCaP Dmax (%)) fell in the range of 51 to 70%. Also, the 50% degradation concentration (DC50) under setting [3] was below 50 nM.
Take `Cc1ncsc1-c1ccc(CNC(=O)[C@@H]2C[C@@H](O)CN2C(=O)[C@@H](NC(=O)COCCCCOc2ccc(-c3ccc(N4C(=S)N(c5ccc(C#N)c(C(F)(F)F)c5)C(=O)C4(C)C)cc3)cc2)C(C)(C)C(=O)O)cc1` [Example 546]: the DC50 under setting [3] was above 501 nM.
In the case of `CC(C)(C)[C@H](NC(=O)COCCCCNc1ccc(C(=O)N[C@H]2C(C)(C)[C@H](Oc3ccc(C#N)c(Cl)c3)C2(C)C)cc1)C(=O)N1C[C@H](O)C[C@H]1C(=O)NCc1ccc(C#N)cc1` [Example 547], under setting [1], the DC50 is below 50 nM. Further, under setting [2], the Dmax fell in the range of 51 to 70%.

A word on the DC50: it is the concentration at which degradation of the target reaches its halfway point. As usually defined, the Dmax is the largest share of the target that was removed.
